Experiments:
[1] = tested on: transienter Auswärtsstrom Ito; experiment: voltage clamp measurement of ion currents in isolated heart muscle cells (Ito); type: cell-based, Ratten; conditions: read-out: Blockade von Ionenströmen in % des Vorwerts transienter Auswärtsstrom Ito
Excerpt: (§1) Die Experimente wurden mit der Spannungsklemmmethode an isolierten Herzmuskelzellen von Meerschweinchen und Ratten durchgeführt. Hierbei wurden die Messungen des Ito an Zellen von Rattenherzen und die Messungen des Ik an Zellen von Meerschweinchenherzen durchgeführt. Die Herzen wurden mit proteolytischen Enzymen (Collagenase) perfundiert, um das Bindegewebe zu lockern. Anschließend wurde das Gewebe mechanisch zerkleinert und sodann erfolgte eine weitere Vereinzelung der Zellen in einer Nährlösung im Schüttelbad. Durch anschließendes Zentrifugieren wurde eine Suspension von Herzmuskelzellen erhalten. Bei der angewendeten Spannungsklemmethode zur Messung der Membranströme wird mittels einer Mikroelektrode (in Form einer mit Elektrolytlösung gefüllten Glaskapillare) das Zellinnere mit einem Verstärker verbunden, der die Membranspannung vorgeben kann. Fließt nun ein Ionenstrom durch die Membran (= Öffnung des Ionenkanalproteins) und verschiebt die Membranspannung, kompensiert der Verstärker diese Verschiebung durch einen Gegenstrom, d. h. die Spannung ist sozusagen festgeklemmt. Der gemessene Gegenstrom entspricht in seinem zeitlichen Verlauf dem physiologischen Ionenstrom mit umgekehrtem Vorzeichen. Die Aktivierung der verschiedenen Ionenströme in der Zellmembran hängt charakteristisch von Spannung und Zeit ab. […]

[2] = tested on: verz.gleichr. Auswärtsstrom Ik; experiment: voltage clamp measurement of ion currents in isolated heart muscle cells (Ik); type: cell-based, Meerschweinchen; conditions: read-out: Blockade von Ionenströmen in % des Vorwerts verz.gleichr. Auswärtsstrom Ik
Excerpt: as §1

Compound `CC(C)CN1CC2CN(C(C)C)CC(C1)C21CCCCC1` [Bertosamil, N-Isobutyl-N'-isopropyl-9,9-pentamethylen-3,7-diazabicyclo[3,3,1]nonan] has an inhibition at 1 µM [1] of 38% and an inhibition at 1 µM [2] of 13%.
